Article PMC8426237, “A first-in-human phase I study of TAS0728, an oral covalent binding inhibitor of HER2, in patients with advanced solid tumors with HER2 or HER3 aberrations” (Investigational New Drugs, 2021)

Experiment: Phase I safety assessment: adverse events (CTCAE v5.0) in patients
[1] = Dose Level 3: 200 mg BID (N = 7)
[2] = Dose Level 3d: 150 mg BID (N = 6)
[3] = all treated population, overall

Procedure: A DLT was defined as a study treatment-related adverse event (TRAE), according to the Common Terminology Criteria for Adverse Events (CTCAE, Version 5.0), with qualifying criteria for certain DLTs (e.g., Grade ≥ 3 diarrhea, was included as a DLT only if lasting >48 h and unresponsive to intensive antidiarrheal medication).
Patients were closely monitored for these potential toxicities during the current study. Safety assessments included recording of AEs and serious AEs (SAEs) from the time of signing the study informed consent form to 30 days after the last dose of study medication. Safety parameters including laboratory evaluations (hematology, coagulation, chemistry, and urinalysis), vital sign measurements and body weight, electrocardiogram (ECG) recordings, ECOG performance status, echocardiogram or multi-gated acquisition (MUGA), and physical examination were assessed at screening, during the study and at 30 days following the last dose. The use of concomitant medications was permitted and details for such medications were recorded.

**Q.** For `C=CC(=O)N1CCC[C@@H](n2nc(C(=O)Nc3ccc(CC(=O)N(C)C)c(C)c3C)c3c(N)ncnc32)C1` [TAS0728], which “Dermatitis acneiform, ≥Grade 3” value [1] is on record?
**A.** 0 n (%)

**Q.** What about the “Diarrhea, Grade 1” value [1] of the same compound?
**A.** 5 (71.4) n (%)

**Q.** And the “Diarrhea, Grade 2” value [1]?
**A.** 5 (71.4) n (%)

**Q.** What about the “Diarrhea, Grade 3” value [1] of the same compound?
**A.** 3 (42.9) n (%)

**Q.** What about the “Diarrhea, Grade 4” value [1] of the same compound?
**A.** 0 n (%)

**Q.** And the “Diarrhea, Grade 5” value [1]?
**A.** 0 n (%)

**Q.** And the “Diarrhea, Total” value [1]?
**A.** 6 (85.7) n (%)

**Q.** What about the “Diarrhea, ≥Grade 3” value [1] of the same compound?
**A.** 3 (42.9) n (%)

**Q.** And the “Dry skin, Grade 1” value [1]?
**A.** 2 (28.6) n (%)

**Q.** What about the “Dry skin, Grade 2” value [1] of the same compound?
**A.** 0 n (%)

**Q.** And the “Dry skin, Grade 3” value [1]?
**A.** 0 n (%)

**Q.** And the “Dry skin, Grade 4” value [1]?
**A.** 0 n (%)

**Q.** And the “Dry skin, Grade 5” value [1]?
**A.** 0 n (%)

**Q.** And the “Dry skin, Total” value [1]?
**A.** 2 (28.6) n (%)

**Q.** And the “Dry skin, ≥Grade 3” value [1]?
**A.** 0 n (%)

**Q.** What about the “Fatigue, Grade 1” value [1] of the same compound?
**A.** 1 (14.3) n (%)

**Q.** What about the “Fatigue, Grade 2” value [1] of the same compound?
**A.** 3 (42.9) n (%)

**Q.** And the “Fatigue, Grade 3” value [1]?
**A.** 0 n (%)

**Q.** What about the “Fatigue, Grade 4” value [1] of the same compound?
**A.** 0 n (%)

**Q.** And the “Fatigue, Grade 5” value [1]?
**A.** 0 n (%)

**Q.** What about the “Fatigue, Total” value [1] of the same compound?
**A.** 3 (42.9) n (%)

**Q.** What about the “Fatigue, ≥Grade 3” value [1] of the same compound?
**A.** 0 n (%)

**Q.** And the “Hypokalemia, Grade 1” value [1]?
**A.** 2 (28.6) n (%)

**Q.** And the “Hypokalemia, Grade 2” value [1]?
**A.** 0 n (%)

**Q.** What about the “Hypokalemia, Grade 3” value [1] of the same compound?
**A.** 0 n (%)

**Q.** What about the “Hypokalemia, Grade 4” value [1] of the same compound?
**A.** 0 n (%)

**Q.** What about the “Hypokalemia, Grade 5” value [1] of the same compound?
**A.** 0 n (%)

**Q.** And the “Hypokalemia, Total” value [1]?
**A.** 2 (28.6) n (%)

**Q.** And the “Hypokalemia, ≥Grade 3” value [1]?
**A.** 0 n (%)

**Q.** What about the “Nausea, Grade 1” value [1] of the same compound?
**A.** 1 (14.3) n (%)

**Q.** And the “Nausea, Grade 2” value [1]?
**A.** 2 (28.6) n (%)

**Q.** And the “Nausea, Grade 3” value [1]?
**A.** 0 n (%)

**Q.** What about the “Nausea, Grade 4” value [1] of the same compound?
**A.** 0 n (%)

**Q.** What about the “Nausea, Grade 5” value [1] of the same compound?
**A.** 0 n (%)

**Q.** And the “Nausea, Total” value [1]?
**A.** 2 (28.6) n (%)

**Q.** And the “Nausea, ≥Grade 3” value [1]?
**A.** 0 n (%)

**Q.** And the “Oedema peripheral, Grade 1” value [1]?
**A.** 2 (28.6) n (%)

**Q.** What about the “Oedema peripheral, Grade 2” value [1] of the same compound?
**A.** 0 n (%)

**Q.** And the “Oedema peripheral, Grade 3” value [1]?
**A.** 0 n (%)

**Q.** What about the “Oedema peripheral, Grade 4” value [1] of the same compound?
**A.** 0 n (%)

**Q.** And the “Oedema peripheral, Grade 5” value [1]?
**A.** 0 n (%)

**Q.** What about the “Oedema peripheral, Total” value [1] of the same compound?
**A.** 2 (28.6) n (%)

**Q.** And the “Oedema peripheral, ≥Grade 3” value [1]?
**A.** 0 n (%)

**Q.** What about the “Pyrexia, Grade 1” value [1] of the same compound?
**A.** 2 (28.6) n (%)

**Q.** And the “Pyrexia, Grade 2” value [1]?
**A.** 1 (14.3) n (%)

**Q.** And the “Pyrexia, Grade 3” value [1]?
**A.** 0 n (%)

**Q.** And the “Pyrexia, Grade 4” value [1]?
**A.** 0 n (%)

**Q.** What about the “Pyrexia, Grade 5” value [1] of the same compound?
**A.** 0 n (%)

**Q.** And the “Pyrexia, Total” value [1]?
**A.** 3 (42.9) n (%)

**Q.** And the “Pyrexia, ≥Grade 3” value [1]?
**A.** 0 n (%)

**Q.** And the “Vomiting, Grade 1” value [1]?
**A.** 1 (14.3) n (%)

**Q.** And the “Vomiting, Grade 2” value [1]?
**A.** 1 (14.3) n (%)

**Q.** And the “Vomiting, Grade 3” value [1]?
**A.** 0 n (%)

**Q.** And the “Vomiting, Grade 4” value [1]?
**A.** 0 n (%)

**Q.** And the “Vomiting, Grade 5” value [1]?
**A.** 0 n (%)

**Q.** What about the “Vomiting, Total” value [1] of the same compound?
**A.** 2 (28.6) n (%)

**Q.** What about the “Vomiting, ≥Grade 3” value [1] of the same compound?
**A.** 0 n (%)

**Q.** And the “Adverse events experienced in ≥10% patients, Grade 1” value [2]?
**A.** 5 (83.3) n (%)

**Q.** What about the “Adverse events experienced in ≥10% patients, Grade 2” value [2] of the same compound?
**A.** 5 (83.3) n (%)

**Q.** And the “Adverse events experienced in ≥10% patients, Grade 3” value [2]?
**A.** 3 (50.0) n (%)

**Q.** And the “Adverse events experienced in ≥10% patients, Grade 4” value [2]?
**A.** 0 n (%)

**Q.** What about the “Adverse events experienced in ≥10% patients, Grade 5” value [2] of the same compound?
**A.** 1 (16.7) n (%)

**Q.** And the “Adverse events experienced in ≥10% patients, Total” value [2]?
**A.** 6 (100) n (%)

**Q.** And the “Adverse events experienced in ≥10% patients, ≥Grade 3” value [2]?
**A.** 3 (50.0) n (%)

**Q.** And the “Back pain, Grade 1” value [2]?
**A.** 1 (16.7) n (%)

**Q.** And the “Back pain, Grade 2” value [2]?
**A.** 1 (16.7) n (%)

**Q.** What about the “Back pain, Grade 3” value [2] of the same compound?
**A.** 0 n (%)

**Q.** What about the “Back pain, Grade 4” value [2] of the same compound?
**A.** 0 n (%)

**Q.** And the “Back pain, Grade 5” value [2]?
**A.** 0 n (%)

**Q.** What about the “Back pain, Total” value [2] of the same compound?
**A.** 2 (33.3) n (%)

**Q.** What about the “Back pain, ≥Grade 3” value [2] of the same compound?
**A.** 0 n (%)

**Q.** And the “Diarrhea, Grade 1” value [2]?
**A.** 2 (33.3) n (%)

**Q.** What about the “Diarrhea, Grade 2” value [2] of the same compound?
**A.** 1 (16.7) n (%)

**Q.** What about the “Diarrhea, Grade 3” value [2] of the same compound?
**A.** 2 (33.3) n (%)

**Q.** What about the “Diarrhea, Grade 4” value [2] of the same compound?
**A.** 0 n (%)

**Q.** And the “Diarrhea, Grade 5” value [2]?
**A.** 0 n (%)

**Q.** And the “Diarrhea, Total” value [2]?
**A.** 4 (66.7) n (%)

**Q.** What about the “Diarrhea, ≥Grade 3” value [2] of the same compound?
**A.** 2 (33.3) n (%)

**Q.** What about the “Pyrexia, Grade 1” value [2] of the same compound?
**A.** 0 n (%)

**Q.** What about the “Pyrexia, Grade 2” value [2] of the same compound?
**A.** 2 (33.3) n (%)

**Q.** What about the “Pyrexia, Grade 3” value [2] of the same compound?
**A.** 0 n (%)

**Q.** What about the “Pyrexia, Grade 4” value [2] of the same compound?
**A.** 0 n (%)

**Q.** And the “Pyrexia, Grade 5” value [2]?
**A.** 0 n (%)

**Q.** And the “Pyrexia, Total” value [2]?
**A.** 2 (33.3) n (%)

**Q.** And the “Pyrexia, ≥Grade 3” value [2]?
**A.** 0 n (%)

**Q.** And the “Vomiting, Grade 1” value [2]?
**A.** 2 (33.3) n (%)

**Q.** What about the “Vomiting, Grade 2” value [2] of the same compound?
**A.** 0 n (%)

**Q.** And the “Vomiting, Grade 3” value [2]?
**A.** 0 n (%)

**Q.** And the “Vomiting, Grade 4” value [2]?
**A.** 0 n (%)

**Q.** And the “Vomiting, Grade 5” value [2]?
**A.** 0 n (%)

**Q.** And the “Vomiting, Total” value [2]?
**A.** 2 (33.3) n (%)

**Q.** And the “Vomiting, ≥Grade 3” value [2]?
**A.** 0 n (%)

**Q.** And the “Patients with AEs” value (Overall (N = 19))?
**A.** 19 (100) n, (%)

**Q.** And the “Patients with AEs that had an outcome of death” value (Overall (N = 19))?
**A.** 1 (5.3) n, (%)

**Q.** And the “Patients with AEs that led to study treatment discontinuation” value (Overall (N = 19))?
**A.** 3 (15.8) n, (%)

**Q.** What about the “Patients with Grade ≥ 3 AEs” value (Overall (N = 19)) of the same compound?
**A.** 9 (47.4) n, (%)

**Q.** What about the “Patients with SAEs” value (Overall (N = 19)) of the same compound?
**A.** 8 (42.1) n, (%)

**Q.** What about the “Patients with treatment-related AEs” value (Overall (N = 19)) of the same compound?
**A.** 17 (89.5) n, (%)

**Q.** What about the “Patients with treatment-related and Grade ≥ 3 AEs” value (Overall (N = 19)) of the same compound?
**A.** 6 (31.6) n, (%)

**Q.** And the “Patients who died during the study” value (all dose levels)?
**A.** 4

**Q.** And the “Patients who experienced an AE during the study” value (all treated population, all 19 patients)?
**A.** 100.0%

**Q.** And the “TRAE incidence: diarrhea” value [3]?
**A.** 78.9%

**Q.** What about the “TRAE incidence: fatigue” value [3] of the same compound?
**A.** 21.1%

**Q.** And the “TRAE incidence: nausea” value [3]?
**A.** 21.1%

**Q.** And the “TRAE incidence: vomiting” value [3]?
**A.** 21.1%

**Q.** And the “TRAEs considered ≥Grade 3 in severity” value [3]?
**A.** 31.6%

**Q.** What about the “≥Grade 3 TRAE incidence: diarrhea” value [3] of the same compound?
**A.** 26.3%

**Q.** What about the “Patients with an SAE considered related to study drug” value (all treated population, three of 19, diarrhea (200- and 150-mg BID), cardiac arrest (150 mg BID)) of the same compound?
**A.** 15.8%

**Q.** And the “Changes from baseline in clinical laboratory results and standard 12-lead ECG parameters” value (during the study)?
**A.** No clinically meaningful changes from baseline

**Q.** What about the “Patients who experienced an AE that led to study drug discontinuation” value (in total, all dose levels) of the same compound?
**A.** 4

**Q.** And the “Deaths >30 days after the last dose of study treatment, all due to clinical progression” value (of 4 deaths)?
**A.** 3

**Q.** And the “Patients who experienced ≥1 SAE” value (overall population, 8 of 19)?
**A.** 42.1%

**Q.** And the “Patients with an SAE Grade 3 or higher in severity” value (overall population, five patients)?
**A.** 26.3%

**Q.** And the “SAE incidence: acute kidney injury” value (overall, 1 patient)?
**A.** 5.3%

**Q.** And the “SAE incidence: back pain” value (overall, 1 patient)?
**A.** 5.3%

**Q.** What about the “SAE incidence: cardiac arrest” value (overall, 1 patient) of the same compound?
**A.** 5.3%

**Q.** What about the “SAE incidence: cellulitis” value (overall, 1 patient) of the same compound?
**A.** 5.3%

**Q.** And the “SAE incidence: clostridium colitis” value (overall, 1 patient)?
**A.** 5.3%

**Q.** And the “SAE incidence: dysphagia” value (overall, 1 patient)?
**A.** 5.3%

**Q.** And the “≥Grade 3 TRAE incidence: acute kidney injury” value (overall, 1 patient)?
**A.** 5.3%

**Q.** What about the “≥Grade 3 TRAE incidence: cardiac arrest” value (overall, 1 patient) of the same compound?
**A.** 5.3%

**Q.** And the “≥Grade 3 TRAE incidence: proteinuria” value (overall, 1 patient)?
**A.** 5.3%

**Q.** And the “SAE incidence: diarrhea” value (overall, 2 patients)?
**A.** 10.5%

**Q.** And the “SAE incidence: pyrexia” value (overall, 4 patients (2 each at 200 mg and 150 mg BID))?
**A.** 21.1%

**Q.** What about the “Patients with diarrhea at a severity ≥Grade 3” value (reduced dose of 150 mg BID) of the same compound?
**A.** 2

**Q.** What about the Patients with diarrhea (reduced dose of 150 mg BID, 4 of 6) of the same compound?
**A.** 66.7%
